# Experimental data taken from patent US20220040255A1, “CHEMOTHERAPEUTIC REMODELING OF THE GUT MICROBIOME” (THE SCRIPPS RESEARCH INSTITUTE, priority 2018, published 2022).
# Where a SMILES comes first, the peptide text is derived from it. [ ]: non-standard residue; d: D form.
# Columns and labels:
# [1] = tested on: gut microbiota from cecum of LDLr−/− mice; experiment: in vitro en masse screening assay (cecum culture, 16S rRNA sequencing); type: cell-based; conditions: ranking in remodeling WD gut microbiota toward CHD microbiota composition
# Protocol: We have established the following in vitro compound screening protocol for en masse gut microbiome remodeling. We obtain fresh gut microbiome content from LDLr^-/- mice conditioned for at least two weeks on WD by surgically removing cecum under anaerobic conditions. These samples are then mixed with growth media, distributed in 96-well plates, and incubated overnight in the presence of the test peptides. The activity and selectivity of each peptide for remodeling the gut microbiota community was assessed en masse by 16S rRNA sequencing of each well. A number of challenges had to be addressed in developing this protocol, including inoculum handling, choice of growth media, assay duration, etc. Our current assay culture condition maintains 50 bacterial genera (overnight culture), which is fairly representative of the 67 genera found in the uncultured community (Table 2). We used a distance scoring algorithm for a more refined compound selection, in which peptides that remodel the microbiota community most completely from the dysfunctional state (WD fed) toward the functional state (CHD fed) are scored higher. Briefly, we first eliminate cyclic D,L-α-peptides that have broad-spectrum antibacterial activity (inhibit >95% of growth of ≥25% of species in the community). The remaining compounds are then ranked based on how well they suppressed the bacterial species that grew in abundance in WD-fed mice. […] Among these, 40 genera decreased while 14 genera increased in abundance by WD feeding. Within the increased 11 genera, there were 19 bacterial species that were also present in our in vitro culture system. Accordingly, compounds were scored highly when they reduced the levels of 19 bacterial species (lowest summed differences in relative abundance) that were increased by WD feeding to be more similar to their levels in a CHD-fed microbiome (see Table 3 for peptide ranking). Based on these analyses, we chose two peptides for further in vivo validation and efficacy studies: the cationic peptide 1, […] NO:1), and the neutral peptide 11, […] NO:11), which ranked high within their respective peptide clusters. In vitro cecum culture and peptide screening. We screened a number of parameters to optimize the in vitro culture condition for maximal bacterial diversity in liquid culture, including a survey of several different growth media, dilution factors for plate inoculation, and incubation times; further details of the development of this in vitro screen will be reported elsewhere. Female LDLr^-/- mice (8-10 weeks of age) were fed a WD for two weeks. Cecum harvest and all assay steps were performed under anaerobic conditions (Coy Laboratory anaerobic chamber). Cecum contents from three mice were pooled for the assay to provide enough material and to minimize the individual variation in gut microbiome. Cecum contents were suspended in PBS (1.5 ml PBS per 100 mg of cecum content). The mixture was vortexed for 5 min and the supernatant was transferred to a new tube. The cecum content mixture was further diluted in Chopped Meat Carbohydrate Broth (BD 297307) for in vitro peptide screening. […] The concentration of peptide stock in DMSO was calculated based on A280 measurement. For each peptide, an initial 20 mM stock was made in DMSO and diluted to 1 mM in 10% sucrose. From that, a 0.64 mM peptide dilution in 10% sucrose was prepared, and each peptide was further diluted into the assay for peptide screening at two concentrations (64 μM and 16 μM). Bacterial DNA was harvested after 24-hour peptide treatment and isolated with Microbial DNA isolation kit (Mo Bio) following the manufacturer's instructions. 16S rRNA gene sequencing and processing. PCR amplicons of the V3-V4 16S rRNA region were amplified and sequenced using an Illumina MiSeq platform. […]
# [2] = tested on: Foxp3+ regulatory T cell (Treg) population; experiment: quantification of regulatory T cells in lamina propria; type: in vivo, mice
# Description: Quantification of regulatory T cells. Lamina propria (LP) immune cells from the small intestine were isolated using lamina propria dissociation kit (Miltenyi Biotec) following the manufacturer's instruction. All antibodies and flow cytometry reagents were obtained from Thermo Fisher. We used FITC anti-CD4 (RM4-5), PE anti-Foxp3 (FJK-16s), PE-Cyanine 7 anti-GATA3 (TWAJ), APC anti ROR gamma t (AFKJS-9), APC-efluor780 anti-Helios (22F6) and e-fluor 450 anti-CD3 (17A2) antibodies. To block non-antigen specific binding of immunoglobulins and discriminate live from dead cells, LP cell suspensions were incubated with mouse BD Fc block (BD Biosciences) and e-fluor 506 fixable viability dye (Thermo Fisher) for 30 minutes on ice. For surface staining, the cells were incubated with antibodies for 25 min, washed and fixed in fixation/permeabilization solution (Thermo Fisher). After being washed with transcription factor wash buffer (Thermo Fisher), cells were stained intracellularly for 45 min at room temperature, washed, and resuspended in PBS. Samples were read in a FACs canto analyzer (BD Biosciences) and analyzed with FACs Diva software v 8.0 (BD Biosciences). Total LP cell numbers were quantified to calculate regulatory T cell ratios. Flow Jo v10 software was used for dot plots generation and final analysis.
# [3] = wild-type and LDLr−/− mice fed a WD
SMILES,ranked distance to chow [1],composition of Foxp3+ regulatory T cell (Treg) population [2],"Helios+/RORγt+ Treg ratio [2, 3]","Helios+/Th17 ratio [2, 3]"
CC(C)C[C@@H]1NC(=O)[C@@H](Cc2c[nH]c3ccccc23)NC(=O)[C@H](CCCCN)NC(=O)[C@@H](Cc2c[nH]cn2)NC(=O)[C@H](CO)NC(=O)[C@@H](Cc2c[nH]cn2)NC(=O)[C@H](CCCCN)NC(=O)[C@@H](Cc2c[nH]c3ccccc23)NC1=O [c[wLwKhShK]] (cyclo([dW]L[dW]K[dH]S[dH]K)),2,–,–,–
CC(C)C[C@@H]1NC(=O)[C@@H](Cc2c[nH]c3ccccc23)NC(=O)[C@H](CCCNC(=N)N)NC(=O)[C@@H](CCC(=O)O)NC(=O)[C@H](CCC(N)=O)NC(=O)[C@@H](CCC(=O)O)NC(=O)[C@H](CCCNC(=N)N)NC(=O)[C@@H](Cc2c[nH]c3ccccc23)NC1=O [c[wLwReQeR]] (cyclo([dW]L[dW]R[dE]Q[dE]R)),14,significantly altered,increased,increased
